Assay: molar heat capacity at saturation pressure
Conditions: Vacuum adiabatic calorimetry

CCCCCCCCCC(=O)OCC [ethyl decanoate]
Conditions | molar heat capacity [J/K/mol]
204.7 K, Crystal | 251.8
205.19 K, Crystal | 252
205.24 K, Crystal | 252.1
205.57 K, Crystal | 252.3
206.25 K, Crystal | 253.2
206.66 K, Crystal | 253.6
207.14 K, Crystal | 254
207.19 K, Crystal | 254
207.62 K, Crystal | 254.3
208.2 K, Crystal | 255.2
208.63 K, Crystal | 255.4
209.09 K, Crystal | 255.7
209.14 K, Crystal | 255.7
209.67 K, Crystal | 256.4
210.15 K, Crystal | 257
210.59 K, Crystal | 257.3
211.04 K, Crystal | 257.6
211.09 K, Crystal | 257.8
211.71 K, Crystal | 258.4
212.1 K, Crystal | 259
212.56 K, Crystal | 259.1
212.98 K, Crystal | 259.7
213.04 K, Crystal | 259.7
213.75 K, Crystal | 260.3
214.05 K, Crystal | 261
214.52 K, Crystal | 261.2
214.93 K, Crystal | 261.7
214.99 K, Crystal | 261.6
215.78 K, Crystal | 262.5
215.99 K, Crystal | 263.2
216.49 K, Crystal | 263.3
216.87 K, Crystal | 263.9
216.93 K, Crystal | 263.7
217.81 K, Crystal | 264.8
217.93 K, Crystal | 265.3
218.46 K, Crystal | 265.4
218.81 K, Crystal | 266.1
218.87 K, Crystal | 265.9
219.84 K, Crystal | 267.1
219.87 K, Crystal | 267.5
220.42 K, Crystal | 267.6
220.75 K, Crystal | 268.4
220.81 K, Crystal | 268.3
221.82 K, Crystal | 269.7
221.86 K, Crystal | 269.6
222.39 K, Crystal | 270
222.68 K, Crystal | 270.8
222.75 K, Crystal | 270.5
223.76 K, Crystal | 272.3
223.88 K, Crystal | 272.1
224.36 K, Crystal | 272.5
224.61 K, Crystal | 273.3
224.69 K, Crystal | 272.9
225.69 K, Crystal | 274.9
225.89 K, Crystal | 274.9
226.33 K, Crystal | 275.1
226.54 K, Crystal | 276.1
226.62 K, Crystal | 275.6
227.62 K, Crystal | 277.6
227.9 K, Crystal | 277.8
228.29 K, Crystal | 277.8
228.46 K, Crystal | 278.4
228.54 K, Crystal | 278.3
229.55 K, Crystal | 280.1
229.89 K, Crystal | 280.6
230.26 K, Crystal | 280.8
230.47 K, Crystal | 280.9
232.23 K, Crystal | 284
232.58 K, Crystal | 284.3
234.19 K, Crystal | 287.3
234.97 K, Crystal | 289
236.16 K, Crystal | 291.1
237.29 K, Crystal | 294.1
238.11 K, Crystal | 296.8
239.59 K, Crystal | 301
240.07 K, Crystal | 303
241.85 K, Crystal | 310.4
244.07 K, Crystal | 325.4
246.21 K, Crystal | 353.6
254.4 K, Liquid | 386.7
255.37 K, Liquid | 387
256.65 K, Liquid | 387.2
257.1 K, Liquid | 387.4
257.94 K, Liquid | 387.5
258.76 K, Liquid | 387.7
259.18 K, Liquid | 387.9
260.12 K, Liquid | 388.2
260.59 K, Liquid | 388.3
261.71 K, Liquid | 388.7
262.29 K, Liquid | 388.9
262.56 K, Liquid | 388.9
264.24 K, Liquid | 389.3
264.47 K, Liquid | 389.5
264.54 K, Liquid | 389.4
266.52 K, Liquid | 390
266.65 K, Liquid | 390.1
266.77 K, Liquid | 390.1
268.5 K, Liquid | 390.8
268.83 K, Liquid | 390.8
269.31 K, Liquid | 391
270.48 K, Liquid | 391.6
271.01 K, Liquid | 391.6
271.84 K, Liquid | 391.9
272.46 K, Liquid | 392.3
273.19 K, Liquid | 392.4
274.38 K, Liquid | 392.9
274.44 K, Liquid | 393
275.37 K, Liquid | 393.2
276.42 K, Liquid | 393.8
276.91 K, Liquid | 394
277.55 K, Liquid | 394.1
278.4 K, Liquid | 394.5
279.45 K, Liquid | 394.9
279.73 K, Liquid | 394.9
280.38 K, Liquid | 395.3
281.91 K, Liquid | 396
281.98 K, Liquid | 396.1
282.36 K, Liquid | 396.2
284.09 K, Liquid | 396.8
284.34 K, Liquid | 397.1
284.52 K, Liquid | 397.2
286.27 K, Liquid | 397.8
286.32 K, Liquid | 397.8
287.05 K, Liquid | 398.3
288.3 K, Liquid | 398.7
288.45 K, Liquid | 398.8
289.59 K, Liquid | 399.4
290.28 K, Liquid | 399.7
290.63 K, Liquid | 399.9
292.13 K, Liquid | 400.5
292.26 K, Liquid | 400.7
292.81 K, Liquid | 401
294.23 K, Liquid | 401.6
294.66 K, Liquid | 401.8
294.99 K, Liquid | 401.9
296.21 K, Liquid | 402.5
297.17 K, Liquid | 403.1
297.19 K, Liquid | 403
298.19 K, Liquid | 403.4
299.72 K, Liquid | 404.3
300.16 K, Liquid | 404.4
302.14 K, Liquid | 405.5
302.25 K, Liquid | 405.6
304.12 K, Liquid | 406.5
304.78 K, Liquid | 406.9
306.09 K, Liquid | 407.7
307.31 K, Liquid | 408.3
308.07 K, Liquid | 408.7
309.83 K, Liquid | 409.6
310.05 K, Liquid | 409.6
312.02 K, Liquid | 410.7
312.36 K, Liquid | 411
314 K, Liquid | 411.8
314.88 K, Liquid | 412.3
315.98 K, Liquid | 412.8
317.41 K, Liquid | 413.8
317.96 K, Liquid | 414
319.93 K, Liquid | 415
319.94 K, Liquid | 415
321.92 K, Liquid | 416.3
322.45 K, Liquid | 416.4
323.9 K, Liquid | 417.2
324.96 K, Liquid | 417.7
325.88 K, Liquid | 418.2
327.48 K, Liquid | 419.3
327.86 K, Liquid | 419.2
329.84 K, Liquid | 420.3
330 K, Liquid | 420.6
331.82 K, Liquid | 421.5
332.51 K, Liquid | 422
333.8 K, Liquid | 422.7
335.02 K, Liquid | 423.5
335.78 K, Liquid | 424
337.54 K, Liquid | 424.9
337.76 K, Liquid | 425.1
339.74 K, Liquid | 426.2
340.05 K, Liquid | 426.4
341.72 K, Liquid | 427.3
342.56 K, Liquid | 428
343.7 K, Liquid | 428.7
345.06 K, Liquid | 429.5
345.68 K, Liquid | 429.8
347.57 K, Liquid | 430.9
347.66 K, Liquid | 431
349.64 K, Liquid | 432.2
350.07 K, Liquid | 432.4
351.62 K, Liquid | 433.3
352.57 K, Liquid | 433.9
353.61 K, Liquid | 434.3
355.06 K, Liquid | 435.2
355.59 K, Liquid | 435.6
357.56 K, Liquid | 436.8
357.57 K, Liquid | 436.8
359.55 K, Liquid | 438
360.05 K, Liquid | 438.2
362.54 K, Liquid | 439.8
365.03 K, Liquid | 441.4
367.52 K, Liquid | 443

— the NIST ThermoML archive (doi:10.1021/je900093h)
